Experimental data as given in ChEMBL document CHEMBL1201862, “PubChem BioAssay data set” (2004).
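All cell lines were grown in 96-well plates and treated with compound for 48 hours. GI50: concentration for 50% inhibition of growth.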 Activity calls are given as the source filed them. Rule as the data show it: active = GI50 up to about 1.1 µM and inactive = higher.

What was measured:
Assay in all cases: DTP human tumour cell line panel, 48 h
NCI-H23 = tested on: NCI-H23
MDA-N = tested on: MDA-N
MDA-MB-231 = tested on: MDA-MB-231
NCI-H460 = tested on: NCI-H460
M14 = tested on: M14
UACC-62 = tested on: UACC-62
PC-3 = tested on: PC-3
SK-MEL-5 = tested on: SK-MEL-5
SF-268 = tested on: SF-268
T47D = tested on: T47D
IGROV-1 = tested on: IGROV-1
SK-MEL-2 = tested on: SK-MEL-2
LOX IMVI = tested on: LOX IMVI
Hs-578T = tested on: Hs-578T
KM12 = tested on: KM12
DU-145 = tested on: DU-145
Malme-3M = tested on: Malme-3M
SK-OV-3 = tested on: SK-OV-3
COLO 205 = tested on: COLO 205
SNB-19 = tested on: SNB-19

Row | Structure (SMILES) | GI50 (NCI-H23) | GI50 (MDA-N) | GI50 (MDA-MB-231) | GI50 (NCI-H460) | GI50 (M14) | GI50 (UACC-62) | GI50 (PC-3) | GI50 (SK-MEL-5) | GI50 (SF-268) | GI50 (T47D) | GI50 (IGROV-1) | GI50 (SK-MEL-2) | GI50 (LOX IMVI) | GI50 (Hs-578T) | GI50 (KM12) | GI50 (DU-145) | GI50 (Malme-3M) | GI50 (SK-OV-3) | GI50 (COLO 205) | GI50 (SNB-19)
1 | COc1cc(O)c2c(=O)c(OC)c(-c3ccc4c(c3)OCO4)oc2c1OC | > 50 µM (inactive) | > 50 µM (inactive) | 32 µM (inactive) | > 50 µM (inactive) | > 50 µM (inactive) | > 50 µM (inactive) | > 50 µM (inactive) | 22.5 µM (inactive) | 21.7 µM (inactive) | > 50 µM (inactive) | > 50 µM (inactive) | > 50 µM (inactive) | > 50 µM (inactive) | 28.1 µM (inactive) | > 50 µM (inactive) | > 50 µM (inactive) | > 50 µM (inactive) | 21.7 µM (inactive) | > 50 µM (inactive) | 25.9 µM (inactive)
2 | COc1cc2c(cc1OCCN1C(=O)c3cccc4cccc(c34)C1=O)N=C[C@@H]1CCCN1C2=O | 10.4 µM (inactive) | 8.02 µM (inactive) | 7.41 µM (inactive) | 5.89 µM (inactive) | 8.34 µM (inactive) | 7.93 µM (inactive) | 7.08 µM (inactive) | 8.61 µM (inactive) | 7.74 µM (inactive) | 9.35 µM (inactive) | 3.11 µM (inactive) | 7.29 µM (inactive) | 6.04 µM (inactive) | 7.8 µM (inactive) | 14.3 µM (inactive) | 8.89 µM (inactive) | 8.02 µM (inactive) | 24.3 µM (inactive) | 8.32 µM (inactive) | 12.4 µM (inactive)
3 | Cc1ccc2nc3[nH]nc(N)c3nc2c1 | > 100 µM (inactive) | 51.1 µM (inactive) | > 100 µM (inactive) | > 100 µM (inactive) | > 100 µM (inactive) | 44.2 µM (inactive) | 93.3 µM (inactive) | > 100 µM (inactive) | > 100 µM (inactive) | 65.3 µM (inactive) | 37 µM (inactive) | > 100 µM (inactive) | > 100 µM (inactive) | 89.3 µM (inactive) | 54.6 µM (inactive) | > 100 µM (inactive) | > 100 µM (inactive) | > 100 µM (inactive) | > 100 µM (inactive) | > 100 µM (inactive)
4 | CC1(c2ccccc2)CCN(C2CC2)CO1 (stereo not given) | 33 µM (inactive) | 15.1 µM (inactive) | 19.3 µM (inactive) | 14.9 µM (inactive) | 16.9 µM (inactive) | 18.1 µM (inactive) | > 100 µM (inactive) | > 100 µM (inactive) | 16.8 µM (inactive) | 17.3 µM (inactive) | 19.6 µM (inactive) | > 100 µM (inactive) | 18 µM (inactive) | 19.4 µM (inactive) | 14.9 µM (inactive) | 29.6 µM (inactive) | 19.9 µM (inactive) | > 100 µM (inactive) | 21.6 µM (inactive) | > 100 µM (inactive)
5 | COC(=O)C1OC(O[C@H]2CC[C@]3(C)[C@H]4CC=C5[C@@H]6CC(C)(C)CC[C@]6(C(=O)OC6OCC(O)C(O)C6OC6OC(C)C(OC7OCC(OC8OCC(O)C(O)C8O)C(O)C7O)C(O)C6O)[C@H](O)C[C@@]5(C)[C@]4(C)CC[C@H]3C2(C)C)C(O)C(O)C1O (stereo not given in full) | 2.43 µM (inactive) | 1.78 µM (inactive) | 2.71 µM (inactive) | 16 µM (inactive) | 1.85 µM (inactive) | 3.29 µM (inactive) | 4.19 µM (inactive) | 3.4 µM (inactive) | 4.72 µM (inactive) | 1.43 µM (inactive) | 4.57 µM (inactive) | 3.02 µM (inactive) | 8.53 µM (inactive) | 6.15 µM (inactive) | 3.72 µM (inactive) | 2.13 µM (inactive) | 4.16 µM (inactive) | 14.9 µM (inactive) | 1.66 µM (inactive) | 3.08 µM (inactive)
6 | CC1CC[C@@]2(OC1)O[C@H]1C[C@H]3[C@@H]4CC[C@H]5C[C@@H](OC6OC(CO)C(OC7OC(CO)C(OC8OC(CO)C(O)C(OC9OC(C)C(OC%10OC(C)C(O)C(O)C%10O)C(O)C9O)C8OC8OCC(O)C(O)C8O)C(O)C7O)C(O)C6O)CC[C@]5(C)[C@H]4CC(=O)[C@]3(C)[C@H]1[C@@H]2C (stereo not given in full) | 20.5 µM (inactive) | 20 µM (inactive) | 16.1 µM (inactive) | 17.8 µM (inactive) | 20.8 µM (inactive) | 18.8 µM (inactive) | 16.7 µM (inactive) | 16.8 µM (inactive) | 25.6 µM (inactive) | 19.3 µM (inactive) | 20.5 µM (inactive) | 16.1 µM (inactive) | 23.8 µM (inactive) | 24.2 µM (inactive) | 18.2 µM (inactive) | 19.9 µM (inactive) | 22.4 µM (inactive) | 24.1 µM (inactive) | 16.5 µM (inactive) | 20.5 µM (inactive)
7 | CCOC(=O)NC1=C(N2CC2)C(=O)C(NC(=O)OCC)=C(N2CC2)C1=O [DIAZIQUONE] | 1.85 µM (inactive) | 3.4 µM (inactive) | 8.13 µM (inactive) | 0.188 µM (active) | 2.62 µM (inactive) | 0.489 µM (active) | 4.36 µM (inactive) | 3.72 µM (inactive) | 2.81 µM (inactive) | 6.21 µM (inactive) | 5.33 µM (inactive) | 5.96 µM (inactive) | 2.31 µM (inactive) | 13.2 µM (inactive) | 8.81 µM (inactive) | 1.9 µM (inactive) | 6.49 µM (inactive) | 4.52 µM (inactive) | 7.69 µM (inactive) | 4.11 µM (inactive)
8 | CC1=NN=C(N)NC1=CC(Sc1ccc(Cl)cc1)c1c(O)ccc2ccccc12 (stereo not given) | 15.1 µM (inactive) | 28.2 µM (inactive) | 21.1 µM (inactive) | 17.4 µM (inactive) | 11.9 µM (inactive) | 9.35 µM (inactive) | 16.1 µM (inactive) | 8.07 µM (inactive) | 11.3 µM (inactive) | 8.51 µM (inactive) | 13 µM (inactive) | 5.02 µM (inactive) | 19.3 µM (inactive) | 5.25 µM (inactive) | 14.5 µM (inactive) | 16.1 µM (inactive) | 3.88 µM (inactive) | 18.3 µM (inactive) | 16.9 µM (inactive) | 20.6 µM (inactive)
9 | N=C(N)NS(=O)(=O)c1ccc(NNC(=O)c2cccc3c(O)c4ccccc4nc23)cc1 | 31.2 µM (inactive) | 25.2 µM (inactive) | 37.6 µM (inactive) | 20.6 µM (inactive) | 17.4 µM (inactive) | 30.3 µM (inactive) | 28.4 µM (inactive) | 17.1 µM (inactive) | 33.7 µM (inactive) | 17.7 µM (inactive) | 24.9 µM (inactive) | 25.1 µM (inactive) | 24.5 µM (inactive) | 63.2 µM (inactive) | 21.8 µM (inactive) | 32.7 µM (inactive) | 19.6 µM (inactive) | 29.6 µM (inactive) | 24.7 µM (inactive) | 48.6 µM (inactive)
10 | c1cc(-c2ccc(-c3ccc(-c4ccc(-c5cccc6nsnc56)[nH]4)c4nsnc34)[nH]2)c2nsnc2c1 | > 100 µM (inactive) | > 100 µM (inactive) | > 100 µM (inactive) | > 100 µM (inactive) | > 100 µM (inactive) | > 100 µM (inactive) | > 100 µM (inactive) | > 100 µM (inactive) | > 100 µM (inactive) | > 100 µM (inactive) | > 100 µM (inactive) | > 100 µM (inactive) | > 100 µM (inactive) | > 100 µM (inactive) | > 100 µM (inactive) | > 100 µM (inactive) | > 100 µM (inactive) | > 100 µM (inactive) | > 100 µM (inactive) | > 100 µM (inactive)
11 | O=C(CC(Cc1ccccc1)c1ccc(Oc2ccccc2)cc1)Nc1cccc(Cl)c1 (stereo not given) | 3.35 µM (inactive) | 4.47 µM (inactive) | 10.8 µM (inactive) | 3.83 µM (inactive) | 4.88 µM (inactive) | 3.04 µM (inactive) | 3.7 µM (inactive) | 11.3 µM (inactive) | 19.2 µM (inactive) | 2.92 µM (inactive) | 2.9 µM (inactive) | 3.56 µM (inactive) | 3.73 µM (inactive) | 7.85 µM (inactive) | 3.29 µM (inactive) | 5.43 µM (inactive) | 15 µM (inactive) | 5.46 µM (inactive) | 6 µM (inactive) | 4.5 µM (inactive)
12 | CN(C1=NCCO1)c1cccc2c1CCCC2 | 3.73 µM (inactive) | 5.18 µM (inactive) | 1.73 µM (inactive) | 4.01 µM (inactive) | 2.23 µM (inactive) | 3.37 µM (inactive) | 2.25 µM (inactive) | 2.11 µM (inactive) | 5.33 µM (inactive) | 8.85 µM (inactive) | 2.75 µM (inactive) | 4.09 µM (inactive) | 2.58 µM (inactive) | 8.15 µM (inactive) | 6.97 µM (inactive) | 9.55 µM (inactive) | 2.76 µM (inactive) | 4.71 µM (inactive) | 1.89 µM (inactive) | 8.04 µM (inactive)
13 | Nc1nc(SCc2ccccc2Cl)cc(C(=O)O)n1 | 57.4 µM (inactive) | 96.4 µM (inactive) | > 100 µM (inactive) | 41.5 µM (inactive) | > 100 µM (inactive) | > 100 µM (inactive) | 53.6 µM (inactive) | 76.9 µM (inactive) | 52.7 µM (inactive) | > 100 µM (inactive) | > 100 µM (inactive) | 58.9 µM (inactive) | 44.4 µM (inactive) | 49.1 µM (inactive) | 55.5 µM (inactive) | > 100 µM (inactive) | 39.4 µM (inactive) | > 100 µM (inactive) | 39.4 µM (inactive) | > 100 µM (inactive)
